From patent US11015216B2, “Substituted imidazo[1,2-a]pyrazines as luciferase substrates” (PROMEGA CORPORATION, priority 2016, dated 2021) come the findings set out here.

In data set [1] the test system is luciferase. The data set can be described thus: Additional luciferase substrate assay, compared to known analogue C-1 (Table 3). Type of data set: biochemical. The conditions noted are these: relative to C-1 (=1); cell marked (75) instead of @100 uM.
The target of a further data set is NanoLuc® Luciferase (Oplophorus gracilirostris, UniProt Q9GV45, A31E/A60N/A81I/F95D/I117V/K70R/L54V/L99Q/M102K/N193R/P142E/Q151K/Q38R/Q45L/V71I/Y165I). In kind it is biochemical. The settings on record: ratio to coelenterazine (=1); for I (relative light units, ratio in comparison to native coelenterazine): initial light output three minutes after substrate addition; for Half-life (signal half-life, ratio in comparison to native coelenterazine): read at five minute intervals. The method, then:
(§1) Luminescence Assay Procedure: Each compound to be screened was dissolved in DMSO (5 mM) and then further diluted to 100 uM in NANO-GLOR Luciferase Assay Buffer. Each diluted substrate was then combined in equal volumes with purified NanoLuc® Luciferase diluted into CO2 independent media+10% FBS. Initial light output for each substrate was measured in a GloMax®-Multi+ luminometer three minutes after substrate addition and then at five minute intervals as a means to determine signal half-life.
A subset of the synthesized coelenterazine analogues (compounds of formula (I)) were evaluated for their suitability as luciferase substrates. NANOLUC® luciferase was employed for the screening because it is a small (19 kDa), stable, and particularly bright enzyme.

For data set [2], the system named is luciferase. The data set can be described thus: Additional luciferase substrate assay, compared to known analogue C-1 (Table 3). In kind it is biochemical. The conditions noted are these: relative to C-1 (=1). The procedure:
as §1
The compounds of formula (I) were also evaluated for their ability to be luciferase substrates in an additional assay.

The next data set concerns HEK293 cells. The data set can be described thus: Cell viability assay, HEK293. In kind it is cell-based. The conditions noted are these: Hek293, 24 h incubation, serial dilution; FIGS. 5 and 6. The procedure: (§2) Cell Culture: HeLa and HEK293 cells were maintained in DMEM containing 0.3 mg/ml glutamine, 100 IU/ml penicillin, 100 μg/ml streptomycin, and 10% fetal calf serum at 37° C. in 5% CO2. Dulbecco's modified eagle medium (DMEM), Opti-MEM, Penicillin/Streptomycin, and Trypsin-EDTA were purchased from Life Technologies (Carlsbad). Fetal calf serum (FBS) was purchased from HyClone (GE Healthcare). Microtiter plates were purchased from Corning.
(§3) Cell viability assay: HEK293 or HeLa cells were plated in […] growth medium (DMEM supplemented with 10% FBS) into wells of white, TC-treated, 96-well plates at a density of 10000 cells per well and incubated for 24 h. The growth medium was then replaced with 100 μl Opti-MEM medium, which contained a serial dilution of the indicated compound. Changes in cell viability were then measured after incubation for 24 h using the […]® Green cell viability assay (Promega) according to manufacturer instructions. All luminescent measurements were performed on a GLOMAX® Discover multimode plate reader (Promega).

The next data set relates to HeLa cells. Briefly: Cell viability assay, HeLa. Type of data set: cell-based. The conditions noted are these: 24 h incubation, serial dilution, FIGS. 3 and 4. The method, then: as §2, §3

NanoLuc® Luciferase, sequence (Q9GV45 other isoform, or with tags, fused parts or gaps with the stated changes): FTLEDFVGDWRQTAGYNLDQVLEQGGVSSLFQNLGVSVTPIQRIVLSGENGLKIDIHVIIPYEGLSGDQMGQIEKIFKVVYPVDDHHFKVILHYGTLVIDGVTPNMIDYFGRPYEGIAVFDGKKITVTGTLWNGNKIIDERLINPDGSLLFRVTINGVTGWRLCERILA

`O=c1c(Cc2ccc(F)c(O)c2)nc2c(Cc3ccccc3)[nH]c(-c3ccccc3)cn1-2` [Compound 20]: the RLU in the data set with luciferase [1] is 0.29 (75).

On to `Cc1ccc(Cc2nc3c(Cc4ccccc4)[nH]c(-c4ccccc4)cn-3c2=O)cn1` [Compound 76], for which the “I (relative light units, ratio in comparison to native coelenterazine)” value on NanoLuc® Luciferase is recorded as 1.666. On NanoLuc® Luciferase, the “Half-life (signal half-life, ratio in comparison to native coelenterazine)” value came out at 1.14. The “RLU (@100 uM)” value in the data set on luciferase [2] stood at 0.04. The “compound-induced cellular toxicity compared to coelenterazine” value in the data set on HEK293 cells and in the data set on HeLa cells was “notably reduced toxicity” throughout.

As to `Cn1cc(Cc2nc3c(Cc4ccccc4)[nH]c(-c4ccccc4)cn-3c2=O)c(=O)n(C)c1=O` [Compound 16], at NanoLuc® Luciferase, the “I (relative light units, ratio in comparison to native coelenterazine)” value is 0.0042 and the “Half-life (signal half-life, ratio in comparison to native coelenterazine)” value was determined as 0.005. In the data set with luciferase [2], the “RLU (@100 uM)” value came out at 0.0001.

As for `O=c1c(Cc2cccnc2)nc2c(Cc3ccccc3)[nH]c(-c3ccccc3)cn1-2` [Compound 64], at NanoLuc® Luciferase, the “I (relative light units, ratio in comparison to native coelenterazine)” value is on record as 2.75 and the “Half-life (signal half-life, ratio in comparison to native coelenterazine)” value was determined as 3.03. Also, the “RLU (@100 uM)” value in the data set with luciferase [2] came to 0.066.

With `O=c1c(Cc2csc3ccccc23)nc2c(Cc3ccccc3)[nH]c(-c3ccccc3)cn1-2` [Compound 7], at NanoLuc® Luciferase, the “I (relative light units, ratio in comparison to native coelenterazine)” value is on record as 4.166 and the “Half-life (signal half-life, ratio in comparison to native coelenterazine)” value is 0.52. In addition, the “RLU (@100 uM)” value in the data set with luciferase [2] stood at 0.1.

For `COc1cc(F)ccc1Cc1nc2c(Cc3ccccc3)[nH]c(-c3ccccc3)cn-2c1=O` [Compound 22], the RLU with luciferase [1] is 0.3 (75).

Regarding `O=c1c(Cc2cn(-c3ccccc3)nc2-c2ccccc2)nc2c(Cc3ccccc3)[nH]c(-c3ccccc3)cn1-2` [Compound 14], on NanoLuc® Luciferase, the “I (relative light units, ratio in comparison to native coelenterazine)” value is 0.042 and the “Half-life (signal half-life, ratio in comparison to native coelenterazine)” value was determined as 2.15. Besides, the “RLU (@100 uM)” value in the data set with luciferase [2] turned out to be 0.001.

In the case of `O=c1c(Cc2ccc(F)nc2)nc2c(Cc3ccccc3)[nH]c(-c3ccccc3)cn1-2` [Compound 68], on NanoLuc® Luciferase, the “I (relative light units, ratio in comparison to native coelenterazine)” value amounted to 12.916 and the “Half-life (signal half-life, ratio in comparison to native coelenterazine)” value was 0.93. In addition, in the data set on luciferase [2], the “RLU (@100 uM)” value was 0.31.

With `N#Cc1cccc(Cc2nc3c(Cc4ccccc4)[nH]c(-c4ccccc4)cn-3c2=O)c1` [Compound 79], at NanoLuc® Luciferase, the “I (relative light units, ratio in comparison to native coelenterazine)” value is recorded as 13.87 and the “Half-life (signal half-life, ratio in comparison to native coelenterazine)” value was found to be 0.52. In addition, the “RLU (@100 uM)” value in the data set with luciferase [2] came out at 0.33.

For `O=c1c(Cc2ccc3ccccc3c2)nc2c(Cc3ccccc3)[nH]c(-c3ccccc3)cn1-2` [Compound 4], on NanoLuc® Luciferase, the “I (relative light units, ratio in comparison to native coelenterazine)” value was 9.166 and the “Half-life (signal half-life, ratio in comparison to native coelenterazine)” value is reported as 0.72. For the same molecule, the “RLU (@100 uM)” value in the data set on luciferase [2] is listed as 0.22.

As for `CN(C)c1ccc(Cc2nc3c(Cc4ccccc4)[nH]c(-c4ccccc4)cn-3c2=O)cn1` [Compound 77], on NanoLuc® Luciferase, the “I (relative light units, ratio in comparison to native coelenterazine)” value amounted to 1.75 and the “Half-life (signal half-life, ratio in comparison to native coelenterazine)” value came to 0.57. Besides, in the data set with luciferase [2], the “RLU (@100 uM)” value is listed as 0.042.

Take `Cn1nnc2cc(Cc3nc4c(Cc5ccccc5)[nH]c(-c5ccccc5)cn-4c3=O)ccc21` [Compound 11]: at NanoLuc® Luciferase, the “I (relative light units, ratio in comparison to native coelenterazine)” value was determined as 0.3 and the “Half-life (signal half-life, ratio in comparison to native coelenterazine)” value came to 1.04. Moreover, in the data set on luciferase [2], the “RLU (@100 uM)” value is reported as 0.0072.

For `O=c1c(Cc2ccc(CN3CCOCC3)o2)nc2c(Cc3ccccc3)[nH]c(-c3ccccc3)cn1-2` [Compound 81], on NanoLuc® Luciferase, the “I (relative light units, ratio in comparison to native coelenterazine)” value was found to be 0.246 and the “Half-life (signal half-life, ratio in comparison to native coelenterazine)” value is 1.19. For the same molecule, the “RLU (@100 uM)” value in the data set with luciferase [2] is 0.0059.

For `O=c1c(Cc2c(F)cc(F)cc2F)nc2c(Cc3ccccc3)[nH]c(-c3ccccc3)cn1-2` [Compound 78], on NanoLuc® Luciferase, the “I (relative light units, ratio in comparison to native coelenterazine)” value was determined as 8.75 and the “Half-life (signal half-life, ratio in comparison to native coelenterazine)” value came to 0.43. The “RLU (@100 uM)” value in the data set with luciferase [2] is listed as 0.21.

For the molecule `O=c1c(Cc2ccc(Br)nc2)nc2c(Cc3ccccc3)[nH]c(-c3ccccc3)cn1-2` [Compound 70], at NanoLuc® Luciferase, the “I (relative light units, ratio in comparison to native coelenterazine)” value is on record as 5 and the “Half-life (signal half-life, ratio in comparison to native coelenterazine)” value came to 0.19. The “RLU (@100 uM)” value in the data set with luciferase [2] came to 0.12.

On to `COc1cncc(Cc2nc3c(Cc4ccccc4)[nH]c(-c4ccccc4)cn-3c2=O)c1` [Compound 72], for which, at NanoLuc® Luciferase, the “I (relative light units, ratio in comparison to native coelenterazine)” value is listed as 1.208 and the “Half-life (signal half-life, ratio in comparison to native coelenterazine)” value is 0.88. Moreover, the “RLU (@100 uM)” value with luciferase [2] is on record as 0.029.
